From US20240148821A1, “PHARMACEUTICAL USE OF CYCLIC PEPTIDE COMPOUND” (CHUGAI SEIYAKU KABUSHIKI KAISHA, priority 2021, published 2024)
Numbered stars: 1 amine (or outer) side, 2 acyl side, 3 side chain; on linkers, the order of the positions; unused ones are H or OH. Bridge positions count the residues as written; N and C are the ends. Square brackets hold non-standard residues; d marks the D form. Peptide text beside a SMILES is read from it. * marks the point of attachment. hPhe(3,5-F2-4-CF3) = N[C@@H](CCc1cc(F)c(C(F)(F)F)c(F)c1)C(=O)O; hPhe(3-Cl-4-CF3) = N[C@@H](CCc1ccc(C(F)(F)F)c(Cl)c1)C(=O)O; NMePhe(4-CF3) = CN[C@@H](Cc1ccc(C(F)(F)F)cc1)C(=O)O; X105 = C[C@@](Cc1cccc(I)c1)(N[*:1])C(=O)[*:2]; 3Oxa8azabicyclo(3.2.1)octane = C1CC2COCC1N2*; NEtPhe(4-Me) = CCN[C@@H](Cc1ccc(C)cc1)C(=O)O; NMeAbu(4,4,4-F3) = CN[C@@H](CC(F)(F)F)C(=O)O; NMePhe(4-Cl) = CN[C@@H](Cc1ccc(Cl)cc1)C(=O)O; NMePhe(4-Me) = CN[C@@H](Cc1ccc(C)cc1)C(=O)O; X59 = Cc1ccc(Br)cc1C[C@H](N[*:1])C(=O)[*:2]; X64 = O=C([C@H](Cc1ccc(Br)s1)N[*:1])[*:2]; NMeGly(cPent) = CN[C@H](C(=O)O)C1CCCC1; Phe(3-I) = N[C@@H](Cc1cccc(I)c1)C(=O)O; Pro(4,4-F2) = O=C(O)[C@@H]1CC(F)(F)CN1; NMeY = CN[C@@H](Cc1ccc(O)cc1)C(=O)O; NMeCha = CN[C@@H](CC1CCCCC1)C(=O)O; NMeChg = CN[C@H](C(=O)O)C1CCCCC1; NMeD = CN[C@@H](CC(=O)O)C(=O)O; NMeL = CN[C@@H](CC(C)C)C(=O)O; d(β3hA) = C[C@@H](N)CC(=O)O; NMeAbu = CC[C@H](NC)C(=O)O; Morpholide = C1CN(*)CCO1; NMeA = CN[C@@H](C)C(=O)O; NMeAib = CNC(C)(C)C(=O)O; Nle = CCCC[C@H](N)C(=O)O; Piperidide = C1CCN(*)CC1; Pra = C#CC[C@H](N)C(=O)O; Pyrrolidide = C1CCN(*)C1; Ac5c = NC1(C(=O)O)CCCC1; Aze = O=C(O)[C@@H]1CCN1; Ac4c = NC1(C(=O)O)CCC1; CF3 = FC(F)(F)*; Sar = CNCC(=O)O

tested on: Human pancreatic cancer cell line AsPC-1 (G12D mutation Kras); experiment: AsPC-1 cell growth inhibition (AsPC-1 CGI); type: cell-based; details: read-out: AsPC-1 cell growth inhibition, 50% growth inhibitory concentration (IC50 value); 96 hours, CellTiter-Glo, values classified in ranges
Experimental: Test compounds were serially dilated with dimethyl sulfoxide, and 200 nL was then dispensed to a U-bottom 96-well plate using Labcyte Echo. […] The cell suspension was dispensed to a. plate containing a test compound at 100 μL per well and incubated at 37° C. in a 5% carbon dioxide gas incubator. 96 hours later, 80 μL of CellTiter-Glo (Promega) was added to each well and fluorescence was measured.

| SMILES | IC50 [µM] |
| --- | --- |
| CC[C@H](C)[C@@H]1NC(=O)[C@H](CC(C)C)N(C)C(=O)C[C@@H](C(=O)N2CCCC2)N(C)C(=O)[C@H](C2CCCCC2)N(C)C(=O)C2(CCC2)NC(=O)[C@@H]2CC(F)(F)CN2C(=O)[C@H](CCc2cc(F)c(C(F)(F)F)c(F)c2)NC(=O)CN(C)C(=O)[C@H](CC2CCCCC2)N(C)C(=O)CN(C)C(=O)CN(C)C1=O [Compound 1192] ([NMeL]I[Sar][Sar][NMeCha][Sar][hPhe(3,5-F2-4-CF3)][Pro(4,4-F2)][Ac4c][NMeChg][NMeD]-Pyrrolidide; lactam N-11) | ≤ 0.02 |
| CC[C@H](C)[C@@H]1NC(=O)[C@H](CC(C)C)N(C)C(=O)C[C@@H](C(=O)N2CCOCC2)N(C)C(=O)[C@H](C2CCCCC2)N(C)C(=O)C2(CCCC2)NC(=O)[C@@H]2CC(F)(F)CN2C(=O)[C@H](CCc2ccc(C(F)(F)F)c(Cl)c2)NC(=O)CN(C)C(=O)[C@H](CC2CCCCC2)N(C)C(=O)CN(C)C(=O)CN(C)C1=O [Compound 1194] ([NMeL]I[Sar][Sar][NMeCha][Sar][hPhe(3-Cl-4-CF3)][Pro(4,4-F2)][Ac5c][NMeChg][NMeD]-Morpholide; lactam N-11) | ≤ 0.02 |
| CCCC[C@@H]1NC(=O)[C@H](Cc2cc(Br)ccc2C)NC(=O)CN(C)C(=O)[C@H](Cc2ccc(OC)cc2)N(C)C(=O)[C@@H]2CCN2C(=O)[C@H](C)N(C)C(=O)[C@H]([C@@H](C)CC)NC(=O)[C@H](CC)N(C)C(=O)C[C@@H](C(=O)N2CCCCC2)N(C)C(=O)[C@H](CC(C)C)NC(=O)C(C)(C)N(C)C1=O [Compound 1195] ([NMeAbu]I[NMeA][Aze][NMeY](Me)[Sar][X59][Nle][NMeAib]L[NMeD]-Piperidide; lactam N-11) | > 0.5 |
| CC[C@H](C)[C@@H]1NC(=O)[C@H](CC(F)(F)F)N(C)C(=O)C[C@@H](C(=O)N2CCCC2)N(C)C(=O)[C@H](C2CCCCC2)N(C)C(=O)C2(CCCC2)NC(=O)[C@@H]2CC(F)(F)CN2C(=O)[C@H](CCc2ccc(C(F)(F)F)c(Cl)c2)NC(=O)CN(C)C(=O)[C@H](Cc2ccc(C(F)(F)F)cc2)N(C)C(=O)CN(C)C(=O)CN(C)C1=O [Compound 1196] ([NMeAbu(4,4,4-F3)]I[Sar][Sar][NMePhe(4-CF3)][Sar][hPhe(3-Cl-4-CF3)][Pro(4,4-F2)][Ac5c][NMeChg][NMeD]-Pyrrolidide; lactam N-11) | ≤ 0.02 |
| CCCC[C@@H]1NC(=O)[C@](C)(Cc2cccc(I)c2)NC(=O)CN(C)C(=O)[C@H](Cc2ccc(Cl)cc2)N(C)C(=O)CN(C)C(=O)CN(C)C(=O)[C@H]([C@@H](C)CC)NC(=O)[C@H](CC(C)C)N(C)C(=O)C[C@@H](C(=O)N2CCCCC2)N(C)C(=O)[C@H](CC(C)C)NC(=O)C(C)(C)N(C)C1=O [Compound 1202] ([NMeL]I[Sar][Sar][NMePhe(4-Cl)][Sar][X105][Nle][NMeAib]L[NMeD]-Piperidide; lactam N-11) | > 0.5 |
| CC[C@H](C)[C@@H]1NC(=O)[C@H](CC(C)C)N(C)C(=O)C[C@@H](C(=O)N2C3CCC2COC3)N(C)C(=O)[C@H](C2CCCC2)N(C)C(=O)C2(CCCC2)NC(=O)[C@@H]2CCCN2C(=O)[C@H](CCc2cc(F)c(C(F)(F)F)c(F)c2)NC(=O)CN(C)C(=O)[C@H](Cc2ccc(C)cc2)N(CC)C(=O)[C@@H]2CCN2C(=O)[C@H](C)N(C)C1=O [Compound 1215] ([NMeL]I[NMeA][Aze][NEtPhe(4-Me)][Sar][hPhe(3,5-F2-4-CF3)]P[Ac5c][NMeGly(cPent)][NMeD]-{3Oxa8azabicyclo(3.2.1)octane}; lactam N-11) | ≤ 0.02 |
| CCCC[C@@H]1NC(=O)[C@H](Cc2ccc(Br)s2)NC(=O)CN(C)C(=O)[C@H](Cc2ccc(Cl)cc2)N(C)C(=O)CN(C)C(=O)CN(C)C(=O)[C@H]([C@@H](C)CC)NC(=O)[C@H](CC(C)C)N(C)C(=O)C[C@@H](C(=O)N2CCCCC2)N(C)C(=O)[C@H](CC(C)C)NC(=O)C(C)(C)N(C)C1=O [Compound 1216] ([NMeL]I[Sar][Sar][NMePhe(4-Cl)][Sar][X64][Nle][NMeAib]L[NMeD]-Piperidide; lactam N-11) | > 0.5 |
| C#CC[C@@H]1NC(=O)[C@H](Cc2cccc(I)c2)NC(=O)CN(C)C(=O)[C@H](Cc2ccc(OC(F)(F)F)cc2)N(C)C(=O)CN(C)C(=O)CN(C)C(=O)[C@H]([C@@H](C)CC)NC(=O)[C@H](CC(C)C)N(C)C(=O)C[C@@H](C(=O)N2CCCCC2)N(C)C(=O)[C@H](CC(C)C)NC(=O)C(C)(C)N(C)C1=O [Compound 1219] ([NMeL]I[Sar][Sar][NMeY](CF3)[Sar][Phe(3-I)][Pra][NMeAib]L[NMeD]-Piperidide; lactam N-11) | > 0.5 |
| CC[C@H](C)[C@@H]1NC(=O)[C@H](CC(C)C)N(C)C(=O)C[C@@H](C)NC(=O)[C@H](C2CCCC2)N(C)C(=O)[C@H](C)NC(=O)[C@@H]2CCCN2C(=O)[C@H](CCc2ccc(C(F)(F)F)c(Cl)c2)NC(=O)CN(C)C(=O)[C@H](Cc2ccc(C)cc2)N(C)C(=O)[C@@H]2CCN2C(=O)[C@H](C)N(C)C1=O [Compound 1221] (cyclo(A[NMeGly(cPent)][d(β3hA)][NMeL]I[NMeA][Aze][NMePhe(4-Me)][Sar][hPhe(3-Cl-4-CF3)]P)) | > 0.5 |
